From patent US9102931B1, “Yeast strains and method for lignocellulose to ethanol production” (priority 2012, dated 2015)

Experiments:
[1] = biological target: T1, S. stipitis xylose transporter XUT7, SEQ ID NO: 65, in S. cerevisiae Y-50049-YXI-XUT7 (NRRL Y-50466) (Scheffersomyces stipitis, UniProt J9PER1); assay: Aerobic xylose uptake kinetics (Lineweaver-Burk), Y-50049-YXI-XUT7; assay type: cell-based; conditions: whole cells, 30° C.
T1 construct: whole-cell xylose uptake; S. stipitis CUG codons are read as Leu in this host
T1 sequence (J9PER1 1-418): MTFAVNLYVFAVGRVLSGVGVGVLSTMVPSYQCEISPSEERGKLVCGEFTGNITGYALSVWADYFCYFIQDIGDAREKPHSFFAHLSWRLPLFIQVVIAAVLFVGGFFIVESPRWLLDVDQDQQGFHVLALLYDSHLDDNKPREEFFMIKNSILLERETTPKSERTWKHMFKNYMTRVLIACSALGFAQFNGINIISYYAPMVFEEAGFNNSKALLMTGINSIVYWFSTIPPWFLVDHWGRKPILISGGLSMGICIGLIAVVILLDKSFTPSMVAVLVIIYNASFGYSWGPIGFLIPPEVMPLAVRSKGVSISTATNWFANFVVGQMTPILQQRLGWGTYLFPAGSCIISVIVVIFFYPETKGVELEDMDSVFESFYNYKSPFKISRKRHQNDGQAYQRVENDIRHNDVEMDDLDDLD
Source text: (§1) A portion of promoter and terminator for PGK1 was amplified from S. cerevisiae NRRL Y-50049 genomic DNA using primers PGK_PL/PGK_PR and PGK_TL/PGK_TR, as detailed in the Description of Sequences above. Amplified PGK1 fragments were cloned into vector pRS42H resulting in pRS42H -PGK1 promoter-terminator. Six putative xylose transporter genes XUT4, XUT5, XUT6, XUT7, RGT2, and SUT4 were amplified using various primers from the genomic DNA of S. stipitis. Each xylose transporter gene was cloned into the S. cerevisiae expression vector pRS42H-PGK1 promoter-terminator with proper restriction endonuclease sites designed. All DNA oligos were synthesized by IDT (Coralville, Iowa). […]
(§2) The relative performance of yeast strains Y-50746, Y-50747, Y-50748, Y-50749, Y-50465, and Y-50466 containing a xylose isomerase gene and a xylose xylose transporter gene was further assessed in cell populations that were first grown aerobically on xylose and then transferred into fresh culture medium at high cell density. […] Aerobic xylose uptake rate was assessed for the host strain Y-50049−YXI and each of its six xylose transporter-expressing derivatives. […] Once xylose was added to cultures, the reaction timing began, and the first sample was immediately taken, diluted for optical density reading, and centrifuged (10,000 rpm, 6 min). […]

[2] = biological target: T2, S. stipitis xylose transporter RGT2, SEQ ID NO: 64, in S. cerevisiae Y-50049-YXI-RGT2 (NRRL Y-50465) (Scheffersomyces stipitis, UniProt J9PF54); assay: Aerobic xylose uptake kinetics (Lineweaver-Burk), Y-50049-YXI-RGT2; assay type: cell-based; conditions: whole cells, 30° C.
T2 construct: whole-cell xylose uptake; S. stipitis CUG codons are read as Leu in this host
T2 sequence (J9PF54 1-528): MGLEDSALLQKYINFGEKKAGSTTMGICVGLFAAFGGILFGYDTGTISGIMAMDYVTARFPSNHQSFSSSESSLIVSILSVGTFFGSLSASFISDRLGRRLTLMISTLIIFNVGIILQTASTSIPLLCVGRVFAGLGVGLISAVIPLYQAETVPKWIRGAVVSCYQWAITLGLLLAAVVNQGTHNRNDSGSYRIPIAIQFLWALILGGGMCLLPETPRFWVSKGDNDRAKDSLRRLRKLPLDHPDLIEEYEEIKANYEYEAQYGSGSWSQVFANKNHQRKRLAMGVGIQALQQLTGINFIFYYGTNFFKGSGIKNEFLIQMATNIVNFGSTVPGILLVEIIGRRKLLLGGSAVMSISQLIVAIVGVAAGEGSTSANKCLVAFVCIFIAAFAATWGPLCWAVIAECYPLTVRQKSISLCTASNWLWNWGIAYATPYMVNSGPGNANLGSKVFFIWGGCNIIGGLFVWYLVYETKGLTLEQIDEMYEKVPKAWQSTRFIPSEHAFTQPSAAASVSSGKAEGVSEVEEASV
Source text: as §1, §2

[3] = biological target: T3, S. stipitis xylose transporter XUT6, SEQ ID NO: 67, in S. cerevisiae Y-50049-YXI-XUT6 (NRRL Y-50749) (Scheffersomyces stipitis, UniProt J9Q9F3); assay: Aerobic xylose uptake kinetics (Lineweaver-Burk), Y-50049-YXI-XUT6; assay type: cell-based; conditions: whole cells, 30° C.
T3 construct: whole-cell xylose uptake; S. stipitis CUG codons are read as Leu in this host
T3 sequence (J9Q9F3 1-544): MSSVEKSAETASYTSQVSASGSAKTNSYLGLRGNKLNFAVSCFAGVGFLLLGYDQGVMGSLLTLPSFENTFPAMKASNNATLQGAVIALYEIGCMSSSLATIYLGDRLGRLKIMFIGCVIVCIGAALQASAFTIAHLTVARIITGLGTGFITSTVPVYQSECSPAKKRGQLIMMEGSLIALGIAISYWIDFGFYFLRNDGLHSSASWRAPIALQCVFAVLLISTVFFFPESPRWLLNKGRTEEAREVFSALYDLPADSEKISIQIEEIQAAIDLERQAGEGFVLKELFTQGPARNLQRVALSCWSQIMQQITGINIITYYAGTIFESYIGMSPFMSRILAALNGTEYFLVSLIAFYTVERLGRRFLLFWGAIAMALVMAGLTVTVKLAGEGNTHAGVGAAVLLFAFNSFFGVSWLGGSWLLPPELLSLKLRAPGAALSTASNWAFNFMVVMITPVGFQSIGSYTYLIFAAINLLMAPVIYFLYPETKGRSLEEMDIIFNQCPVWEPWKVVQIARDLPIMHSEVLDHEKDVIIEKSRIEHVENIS
Source text: as §1, §2

[4] = test system: native xylose uptake of S. cerevisiae Y-50049-YXI (control host strain, YXI xylose isomerase SEQ ID NO: 63, no added xylose transporter gene); assay: Aerobic xylose uptake kinetics (Lineweaver-Burk), host strain Y-50049-YXI (control); assay type: cell-based; conditions: whole cells, 30° C.
Source text: The relative performance of yeast strains Y-50746, Y-50747, Y-50748, Y-50749, Y-50465, and Y-50466 containing a xylose isomerase gene and a xylose xylose transporter gene was further assessed in cell populations that were first grown aerobically on xylose and then transferred into fresh culture medium at high cell density. Under these conditions a high metabolic carbon demand creates the potential for transport to be a limiting factor and amplifies volumetric xylose consumption from the medium. Aerobic xylose uptake rate was assessed for the host strain Y-50049−YXI and each of its six xylose transporter-expressing derivatives. […] Once xylose was added to cultures, the reaction timing began, and the first sample was immediately taken, diluted for optical density reading, and centrifuged (10,000 rpm, 6 min). […] Subsequent samples were collected at 2 h, 4 h, 6 h, and the specific xylose consumption rate (V) was calculated as the rate of decline in xylose concentration (X)/per dry cell concentration (b), assuming the linear correlation of dry yeast biomass concentration with absorbance, b=(0.167 g/L). […] The relative statistical differences between strain performances due to the specific transporter gene expressed were determined by running a two-way analysis of variance of V as a function of the transporter gene and the initial xylose concentration. […]

[5] = biological target: T4, S. stipitis xylose transporter SUT4, SEQ ID NO: 69, in S. cerevisiae Y-50049-YXI-SUT4 (NRRL Y-50748) (Scheffersomyces stipitis, UniProt J9Q8Z9); assay: Aerobic xylose uptake kinetics (Lineweaver-Burk), Y-50049-YXI-SUT4; assay type: cell-based; conditions: whole cells, 30° C.
T4 construct: whole-cell xylose uptake; S. stipitis CUG codons are read as Leu in this host
T4 sequence (J9Q8Z9 1-549): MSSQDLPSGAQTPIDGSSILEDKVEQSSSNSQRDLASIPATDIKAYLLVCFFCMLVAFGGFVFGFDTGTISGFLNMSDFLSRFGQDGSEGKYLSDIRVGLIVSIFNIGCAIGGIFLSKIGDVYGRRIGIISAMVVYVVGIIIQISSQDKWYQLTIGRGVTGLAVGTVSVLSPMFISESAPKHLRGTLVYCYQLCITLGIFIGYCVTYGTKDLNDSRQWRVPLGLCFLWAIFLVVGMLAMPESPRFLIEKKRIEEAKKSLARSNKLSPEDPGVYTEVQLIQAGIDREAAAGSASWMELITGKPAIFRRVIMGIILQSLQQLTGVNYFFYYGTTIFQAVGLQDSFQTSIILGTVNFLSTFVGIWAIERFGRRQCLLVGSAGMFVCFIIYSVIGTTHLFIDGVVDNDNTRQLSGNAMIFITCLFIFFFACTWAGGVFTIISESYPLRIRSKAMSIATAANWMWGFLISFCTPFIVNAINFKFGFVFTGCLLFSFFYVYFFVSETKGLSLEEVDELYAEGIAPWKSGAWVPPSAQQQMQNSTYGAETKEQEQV
Source text: as §1, §2

[6] = test system: S. stipitis Y-7124 xylose proton symporters; conditions: associated with S. stipitis symport, approximate (~); cited from earlier work
[7] = biological target: T5, S. stipitis xylose transporter XUT4, SEQ ID NO: 68, in S. cerevisiae Y-50049-YXI-XUT4 (NRRL Y-50747) (Scheffersomyces stipitis, UniProt J9PED0); assay: Aerobic xylose uptake kinetics (Lineweaver-Burk), Y-50049-YXI-XUT4; assay type: cell-based; conditions: whole cells, 30° C.
T5 construct: whole-cell xylose uptake; S. stipitis CUG codons are read as Leu in this host
Source text: as §1, §2

[8] = biological target: T6, S. stipitis xylose transporter XUT5, SEQ ID NO: 66, in S. cerevisiae Y-50049-YXI-XUT5 (NRRL Y-50746) (Scheffersomyces stipitis, UniProt A3LY79); assay: Aerobic xylose uptake kinetics (Lineweaver-Burk), Y-50049-YXI-XUT5; assay type: cell-based; conditions: whole cells, 30° C.
T6 construct: whole-cell xylose uptake; S. stipitis CUG codons are read as Leu in this host
Source text: as §1, §2

T5 sequence (J9PED0 entry or part of it): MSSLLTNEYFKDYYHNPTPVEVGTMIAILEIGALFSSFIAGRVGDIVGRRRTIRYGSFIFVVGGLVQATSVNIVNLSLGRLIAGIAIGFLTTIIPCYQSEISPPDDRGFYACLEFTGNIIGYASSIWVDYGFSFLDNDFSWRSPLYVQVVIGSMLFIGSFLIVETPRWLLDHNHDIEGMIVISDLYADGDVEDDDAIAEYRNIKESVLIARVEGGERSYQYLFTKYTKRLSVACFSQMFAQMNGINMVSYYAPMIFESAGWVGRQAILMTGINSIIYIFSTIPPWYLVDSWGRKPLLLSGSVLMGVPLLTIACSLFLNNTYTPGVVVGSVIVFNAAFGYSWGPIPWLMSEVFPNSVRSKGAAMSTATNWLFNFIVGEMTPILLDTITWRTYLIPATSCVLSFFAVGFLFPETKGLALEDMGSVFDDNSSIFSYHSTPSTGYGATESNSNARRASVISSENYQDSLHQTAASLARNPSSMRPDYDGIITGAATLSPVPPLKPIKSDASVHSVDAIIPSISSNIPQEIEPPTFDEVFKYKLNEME
T6 sequence (A3LY79 entry or part of it): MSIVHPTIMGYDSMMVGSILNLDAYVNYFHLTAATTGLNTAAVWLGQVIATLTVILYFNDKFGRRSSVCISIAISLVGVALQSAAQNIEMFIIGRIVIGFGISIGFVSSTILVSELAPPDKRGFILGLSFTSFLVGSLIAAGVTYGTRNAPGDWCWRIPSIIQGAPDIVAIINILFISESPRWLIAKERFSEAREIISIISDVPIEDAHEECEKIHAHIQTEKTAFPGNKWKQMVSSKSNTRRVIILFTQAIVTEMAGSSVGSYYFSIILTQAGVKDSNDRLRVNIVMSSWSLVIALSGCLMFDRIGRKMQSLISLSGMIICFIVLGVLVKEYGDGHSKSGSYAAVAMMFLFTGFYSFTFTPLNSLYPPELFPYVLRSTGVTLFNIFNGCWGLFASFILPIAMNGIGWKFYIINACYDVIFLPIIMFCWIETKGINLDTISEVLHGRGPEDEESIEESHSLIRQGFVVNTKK

OC1OC[C@@H](O)[C@H](O)[C@H]1O (stereo partly drawn) [xylose, D-xylose]
Vmax [1]: 0.26 g/g/h
Vmax [2]: 0.28 g/g/h
Vmax [3]: 0.33 g/g/h
Vmax [4]: 0.14 g/g/h
Vmax [5]: 0.36 g/g/h
Km [6]: 0.01 to 0.3 g/L
Vmax [7]: 0.35 g/g/h
Vmax [8]: 0.88 g/g/h
